This assay deals with T1, recombinant human seprase (rhFAP) (Homo sapiens, UniProt Q12884).
T1 sequence (Q12884 26-760 limits assumed): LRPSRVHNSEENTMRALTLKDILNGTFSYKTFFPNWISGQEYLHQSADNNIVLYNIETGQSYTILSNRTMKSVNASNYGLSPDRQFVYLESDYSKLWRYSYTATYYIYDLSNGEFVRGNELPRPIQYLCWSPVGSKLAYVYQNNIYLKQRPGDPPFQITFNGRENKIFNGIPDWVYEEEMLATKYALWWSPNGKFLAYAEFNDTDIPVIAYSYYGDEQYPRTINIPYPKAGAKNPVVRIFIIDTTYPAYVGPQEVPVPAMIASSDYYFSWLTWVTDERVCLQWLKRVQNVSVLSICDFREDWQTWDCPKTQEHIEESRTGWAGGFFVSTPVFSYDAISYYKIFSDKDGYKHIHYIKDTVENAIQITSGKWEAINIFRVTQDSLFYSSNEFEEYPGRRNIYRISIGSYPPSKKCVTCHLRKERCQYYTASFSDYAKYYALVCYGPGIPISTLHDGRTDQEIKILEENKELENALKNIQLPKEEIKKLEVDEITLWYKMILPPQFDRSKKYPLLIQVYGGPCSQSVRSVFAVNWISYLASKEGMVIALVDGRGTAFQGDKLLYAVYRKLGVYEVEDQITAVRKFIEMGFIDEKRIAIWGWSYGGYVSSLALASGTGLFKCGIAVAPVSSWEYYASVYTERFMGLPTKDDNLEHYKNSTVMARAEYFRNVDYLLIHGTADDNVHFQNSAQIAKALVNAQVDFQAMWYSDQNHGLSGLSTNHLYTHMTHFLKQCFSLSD
Kind of assay: Inhibition of enzymatic activity of recombinant human seprase on Z-Gly-Pro-AMC (fluorescence). In kind it is biochemical. The settings on record: for IC50: in vitro data against seprase, read-out: FAP (IC50 nM); for remaining activity at 0.005 µM / remaining activity at 0.05 µM / remaining activity at 0.5 µM / remaining activity at 5 µM / remaining activity at 500 µM / Percent of Control: initial velocity normalized to control without test compound, 50 μM Z-Gly-Pro-AMC; for remaining activity at 0.005 µM / remaining activity at 0.05 µM / remaining activity at 0.5 µM / remaining activity at 5 µM / remaining activity at 500 µM: read-out: Percent of Control. How it is done: In vitro assaying of compounds for inhibition of dipeptidyl peptidase activity of seprase and DPP-IV can be achieved following the described in Edosada C. Y. et al. J. Biolog. Chem. 2006, 281, 7437-7444.
Selected test compounds were examined for their ability to inhibit the enzymatic activity of recombinant human seprase (rhFAP) on the substrate, benzyloxycarbonyl-Gly-Pro-7-amido-4-methylcoumarin (Z-Gly-Pro-AMC). In brief, 10 μg rhFAP was added to 50 μM Z-Gly-Pro-AMC in the presence of increasing concentrations of test compound, and enzymatic activity was determined by monitoring fluorescence (Ex. 355 nm/Em. 460 nm). Compound 1051 is the known inhibitor, Cbz-Gly-boroproline. Initial velocity of the reaction was calculated and normalized to control reactions conducted in the absence of test compound.
The inhibition was measured by the half maximal inhibitory concentration (IC50) of a compound of interest. The IC50 indicates how much of a particular compound is needed to inhibit seprase by half.

Experimental findings from patent publication US20100098633A1, “SELECTIVE SEPRASE INHIBITORS” (Molecular Insight Pharmaceuticals, Inc., priority 2008, published 2010) are described below.

In general, IC50 refers to the concentration at which inhibition is half-maximal. For `O=C(NCC(=O)N1CCCC1B(O)O)c1ccc(I)cc1` (stereo not drawn) [Compound 1024, 1-(2-(4-iodobenzamido)acetyl)pyrrolidin-2-ylboronic acid], the “IC50 values against seprase (in words)” value is “low nanomolar range” and the IC50 was 3 nM. Further, the remaining activity at 0.005 µM (inhibitor 0.005 μM) is 22%. The remaining activity at 0.05 µM (inhibitor 0.05 μM) was 0%. Further, where the note is “inhibitor 0.5 μM”, the remaining activity at 0.5 µM worked out at 0%. For the same compound, the remaining activity at 5 µM (inhibitor 5 μM) was determined as 0%. Further, under “inhibitor 500 μM”, the remaining activity at 500 µM was 0%. As to `O=C(NCC(=O)N1CCCC1B(O)O)c1cc(I)ccc1Br` (stereo not drawn) [Compound 1028, 1-(2-(2-bromo-5-iodobenzamido)acetyl)pyrrolidin-2-ylboronic acid], the half-inhibitory concentration (IC50) was 5 nM.

With `O=C(NCC(=O)N1CCCC1B(O)O)Nc1ccc(I)cc1` (stereo not drawn) [Compound 1034, 1-(2-(3-(4-iodophenyl)ureido)acetyl)pyrrolidin-2-ylboronic acid], the half-inhibitory concentration (IC50) worked out at 11 nM. On the same count and under the same terms, the same measure for `N#C[C@H]1CCCN1C(=O)CNC(=O)c1cccc(I)c1` [Compound 1046, (R)-N-(2-(2-cyanopyrrolidin-1-yl)-2-oxoethyl)-3-iodobenzamide]: 970 nM; for “Re(CO)3[1-(2-(6-(bis((1-methyl-1H-imidazol-2-yl)methyl)amino) hexanamido)acetyl)pyrrolidin-2-ylboronic acid] [Compound 1018]”: 20 nM. On the same count and under the same terms, the same measure for `N#C[C@@H]1CCCN1C(=O)CNCc1cccc(I)c1` [Compound 1049, (S)-1-(2-(3-iodobenzylamino)acetyl)pyrrolidine-2-carbonitrile]: 953 nM; for `N#C[C@@H]1CCCN1C(=O)CNC(=O)c1cc(I)cc(C(=O)O)c1` [Compound 1045, (S)-3-(2-(2-cyanopyrrolidin-1-yl)-2-oxoethylcarbamoyl)-5-iodobenzoic acid]: 1440 nM. With `O=C(NCC(=O)N1CCCC1B(O)O)OCc1ccccc1` (stereo not drawn) [Compound 1051, Cbz-Gly-boroproline, reference compound], the IC50 came to 67 nM. Moreover, the remaining activity at 0.005 µM (inhibitor 0.005 μM) worked out at 81%. Further, the remaining activity at 0.05 µM (inhibitor 0.05 μM) turned out to be 46%. The remaining activity at 0.5 µM (inhibitor 0.5 μM) amounted to 1%. In addition, the remaining activity at 5 µM (inhibitor 5 μM) is 0%. The remaining activity at 500 µM (inhibitor 500 μM) is 0%. For `N#C[C@@H]1CCCN1C(=O)CN1CCN(Cc2cccc(I)c2)CC1` [Compound 1050, (S)-1-(2-(4-(3-iodobenzyl)piperazin-1-yl)acetyl)pyrrolidine-2-carbonitrile], the IC50 amounted to 1150 nM. On the same count and under the same terms, the same measure for `N#C[C@@H]1CCCN1C(=O)CNC(=O)c1ccc(I)cc1Cl` [Compound 1041, (S)-2-chloro-N-(2-(2-cyanopyrrolidin-1-yl)-2-oxoethyl)-4-iodobenzamide]: 692 nM. As to `O=C(NCC(=O)N1CCCC1B(O)O)c1cccc(I)c1` (stereo not drawn) [Compound 1025, 1-(2-(3-iodobenzamido)acetyl)pyrrolidin-2-ylboronic acid], the 50% inhibitory concentration (IC50) was found to be 2 nM. The remaining activity at 0.005 µM (inhibitor 0.005 μM) came to 0%. Besides, where the note is “inhibitor 0.05 μM”, the remaining activity at 0.05 µM worked out at 0%. Also, the remaining activity at 0.5 µM (inhibitor 0.5 μM) amounted to 0%. In addition, for the setting “inhibitor 5 μM”, the remaining activity at 5 µM was 0%. Also, under “inhibitor 500 μM”, the remaining activity at 500 µM turned out to be 0%. As for `N#C[C@@H]1CCCN1C(=O)CNC(=O)c1cc(I)ccc1Cl` [Compound 1042, (S)-2-chloro-N-(2-(2-cyanopyrrolidin-1-yl)-2-oxoethyl)-5-iodobenzamide], the concentration for half-maximal inhibition (IC50) amounted to 785 nM. Consider `N#Cc1ccc(I)cc1C(=O)NCC(=O)N1CCC[C@H]1C#N` [Compound 1044, (S)-2-cyano-N-(2-(2-cyanopyrrolidin-1-yl)-2-oxoethyl)-5-iodobenzamide], for which the IC50 turned out to be 23700 nM. Regarding `N#C[C@@H]1CCCN1C(=O)CNC(=O)c1cccc(I)c1` [Compound 1040, (S)-N-(2-(2-cyanopyrrolidin-1-yl)-2-oxoethyl)-3-iodobenzamide], the “IC50 values against seprase (in words)” value is given as “low nanomolar range” and the concentration for half-maximal inhibition (IC50) was determined as 35 nM. For `O=C(NCC(=O)N1CCCC1B(O)O)c1cc(I)ccn1` (stereo not drawn) [Compound 1033, 1-(2-(4-iodopicolinamido)acetyl)pyrrolidin-2-ylboronic acid], the IC50 came out at 500 nM. The same measure, in the same setting: next, “Re(CO)3[2-((6-(2-(2-boronopyrrolidin-1-yl)-2-oxoethylamino)-6-oxohexyl)(pyridin-2-ylmethyl)amino)acetic acid] [Compound 1016]”: 3530 nM; `O=C(NCC(=O)N1CCCC1B(O)O)c1cc(I)ccc1Cl` (stereo not drawn) [Compound 1027, 1-(2-(2-chloro-5-iodobenzamido)acetyl)pyrrolidin-2-ylboronic acid]: 5 nM; `N#C[C@@H]1CCCN1C(=O)CNC(=O)c1ccccc1I` [Compound 1043, (S)—N-(2-(2-cyanopyrrolidin-1-yl)-2-oxoethyl)-2-iodobenzamide]: 115 nM.

In the case of `O=C(NCC(=O)N1CCCC1B(O)O)c1ccc(I)cc1Cl` (stereo not drawn) [Compound 1026, 1-(2-(2-chloro-4-iodobenzamido)acetyl)pyrrolidin-2-ylboronic acid], the IC50 came out at 3 nM. Turning to `N#Cc1ccc(I)cc1C(=O)NCC(=O)N1CCCC1B(O)O` (stereo not drawn) [Compound 1031, 1-(2-(2-cyano-5-iodobenzamido)acetyl)pyrrolidin-2-ylboronic acid], the IC50 turned out to be 262 nM. As for `O=C(NCC(=O)N1CCCC1B(O)O)c1ccccc1I` (stereo not drawn) [Compound 1023, 1-(2-(2-iodobenzamido)acetyl)pyrrolidin-2-ylboronic acid], the concentration for half-maximal inhibition (IC50) stood at 7 nM. The remaining activity at 0.005 µM (inhibitor 0.005 μM) stood at 42%. The remaining activity at 0.05 µM (inhibitor 0.05 μM) is 0%. Further, the remaining activity at 0.5 µM (inhibitor 0.5 μM) came out at 0%. Also, the remaining activity at 5 µM (inhibitor 5 μM) turned out to be 0%. Under “inhibitor 500 μM”, the remaining activity at 500 µM was determined as 0%. Consider `Cc1ccc(I)cc1C(=O)NCC(=O)N1CCCC1B(O)O` (stereo not drawn) [Compound 1032, 1-(2-(5-iodo-2-methylbenzamido)acetyl)pyrrolidin-2-ylboronic acid], for which the IC50 was found to be 11 nM. For “Re(CO)3[1-(6-(bis(pyridin-2-ylmethyl)amino)hexanoyl)pyrrolidin-2-ylboronic acid] [Compound 1010]”, the half-maximal inhibitory concentration (IC50) is 2540 nM. Besides, the “Percent of Control” value (inhibitor 0.005 μM) was 90%. In addition, the “Percent of Control” value (inhibitor 0.05 μM) came to 95%. Besides, the “Percent of Control” value (inhibitor 0.5 μM) is 82%. In addition, the “Percent of Control” value (inhibitor 5 μM) is recorded as 26%. Further, the “Percent of Control” value (inhibitor 50 μM) was 0%. Also, for the setting “inhibitor 500 μM”, the “Percent of Control” value is reported as 0%. As for `O=C(NCC(=O)N1CCCC1B(O)O)c1cc(I)ccc1F` (stereo not drawn) [Compound 1029, 1-(2-(2-fluoro-5-iodobenzamido)acetyl)pyrrolidin-2-ylboronic acid], the concentration for half-maximal inhibition (IC50) stood at 8 nM.

Regarding `O=C(CN1CCN(Cc2cccc(I)c2)CC1)N1CCCC1B(O)O` (stereo not drawn) [Compound 1036, 1-(2-(4-(3-iodobenzyl)piperazin-1-yl)acetyl)pyrrolidin-2-ylboronic acid], the IC50 stood at 37 nM.

Turning to `NC(Cc1ccc(I)cc1)C(=O)NCC(=O)N1CCCC1N` (stereo not drawn) [Compound 1061], the 50% inhibitory concentration (IC50) is 24500 nM. The same measure, in the same setting: next, “Re(CO)3[1-(2-(6-(bis(pyridin-2-ylmethyl)amino)hexanamido) acetyl)pyrrolidin-2-ylboronic acid] [Compound 1014]”: 21 nM. The same measure, in the same setting: the same measure for “Re(CO)3-2,2′-(2,2′-(6-(2-(2-boronopyrrolidin-1-yl)-2-oxoethylamino)-6-oxohexyl azanediyl)bis(methylene)bis(1H-imidazole-2,1-diyl))diacetic acid [Compound 1020]”: 4 nM. Same read-out and setting: next, `N#C[C@@H]1CCCN1C(=O)CNC(=O)c1ccc(I)cc1` [Compound 1039, (S)-N-(2-(2-cyanopyrrolidin-1-yl)-2-oxoethyl)-4-iodobenzamide]: 511 nM.
